US20080193428A1, “Composition and Method for Modulating and Maintaining Vaginal Bacterial Flora and Vaginal Acidity” (Shenzhen Phlora Biotechnology Limited, priority 2005, published 2008)

Test system: lactobacilli
Test: Inhibition of growth and acid-production of lactobacilli at different pH
Format: cell-based

benzoic acid [benzoic acid and/or its sodium salt]
inhibition effect on the growth and acid-production of lactobacilli (under a relatively high pH value (e.g., pH>4.6)): became weak
inhibition effect on the growth and acid-production of lactobacilli (under a relatively low pH value (e.g., pH<4.0)): relatively strong inhibition effect
